Data reported in patent US12435044B2, “Pyridazinone herbicides and pyridazinone intermediates used to prepare a herbicide” (FMC Corporation, priority 2018, dated 2025).

Columns and labels:
Format in all cases: in vivo
[1] = tested on: Surinamgrass (BRADC; Brachiaria decumbens); experiment: Test H postemergence, mixtures of Cpd. No. 20 with atrazine or glyphosate
Source text: (§1) This test evaluated the effect of mixtures of Cpd. No. 20 with atrazine or glyphosate on several plant species. Seeds of plant species selected from corn (ZEAMD; Zea mays, cv. ‘Pioneer 1184’), soybean (GLXMA; Glycine max, cv. Pioneer 35T58), giant foxtail (SETFA; Setaria faberi), Surinamgrass (BRADC; Brachiaria decumbens), fall panicum (PANDI; Panicum dichotomiflorum), velvetleaf (ABUTH; Abutilon threophrasti), mare's tail (ERICA; Conyza canadensis), barnyardgrass (ECHCG; Echinochloa crus-galli), large crabgrass (DIGSA; Digitaria sanguinalis), palmer amaranth (AMAPA; Amaranthus palmeri), common waterhemp (AMATU; Amaranthus rudis), E. black nightshade (SOLPT; Solanum ptycanthum), and common ragweed (AMBEL; Ambrosia artemisiifolia) were planted in pots containing Redi-Earth® planting medium (Scotts Company, 14111 Scottslawn Road, Marysville, Ohio 43041) comprising spaghnum peat moss, vermiculite, wetting agent and starter nutrients and treated postemergence using test chemicals formulated in a non-phytotoxic solvent mixture which included a surfactant. Plants ranged in height from 2 to 10 cm and were in the one- to two-leaf stage for the postemergence treatment. Treated plants and untreated controls were maintained in a greenhouse for approximately 14 d, after which time all treated plants were compared to untreated controls and visually evaluated for injury. Plant response ratings, summarized in Tables H1 & H2, are based on a 0 to 100 scale where 0 is no effect and 100 is complete control. A dash (-) response means no test result. Test results are presented as a mean of 4 reps.

[2] = tested on: mare's tail (ERICA; Conyza canadensis); experiment: as above
Source text: as §1

[3] = tested on: buckwheat, wild (Polygonum convolvulus); experiment: Test D postemergence controlled growth environment test
Source text: (§2) Seeds of plant species selected from blackgrass (Alopecurus myosuroides), galium (catchweed bedstraw, Galium aparine), kochia (Kochia scoparia), oilseed rape (Brassica napus), barley, spring (Hordeum vulgare), wheat, spring (Triticum aestivum), oat, wild (Avena fatua), barley, winter (Hordeum vulgare) and wheat, winter (Triticum aestivum) were planted into a silt loam soil and treated preemergence with test chemicals formulated in a non-phytotoxic solvent mixture which included a surfactant.
(§3) At the same time, plants selected from these crop and weed species and also bluegrass (annual bluegrass, Poa annua), canarygrass (littleseed canarygrass, Phalaris minor), chickweed (common chickweed, Stellaria media), bromegrass, downy (downy bromegrass, Bromus tectorum), field poppy (Papaver rhoeas), field violet (Viola arvensis), foxtail, green (Setaria viridis), deadnettle (henbit deadnettle, Lamium amplexicaule), ryegrass, Italian (Lolium multiflorum), lambsquarters (Chenopodium album), pigweed (Amaranthus retroflexus), chamomile (scentless chamomile, Matricaria inodora), Russian thistle (Salsola kali), speedwell (bird's-eye speedwell, Veronica persica), buckwheat, wild (Polygonum convolvulus), mustard, wild (Sinapis arvensis), radish, wild (Raphanus raphanistrum), windgrass (Apera spica-venti), geranium, cutleaf (Geranium dissectum) and Canada thistle (Cirsium arvense) were planted in pots containing Redi-Earth® planting medium (Scotts Company, 14111 Scottslawn Road, Marysville, Ohio 43041) comprising spaghnum peat moss, vermiculite, wetting agent and starter nutrients and treated with postemergence applications of the test chemicals formulated in the same manner. Plants ranged in height from 2 to 18 cm (1- to 4-leaf stage). Treated plants and controls were maintained in a controlled growth environment for 14 to 21 d after which time all species were compared to controls and visually evaluated. Plant response ratings, summarized in Table D, are based on a scale of 0 to 100 where 0 is no effect and 100 is complete control. A dash (-) response means no test result.

[4] = tested on: Canada thistle (Cirsium arvense); experiment: as above
Source text: as §2, §3

[5] = tested on: windgrass (Apera spica-venti); experiment: as above
Source text: as §2, §3

[6] = tested on: deadnettle (henbit deadnettle, Lamium amplexicaule); experiment: as above
Source text: as §2, §3

[7] = tested on: speedwell (bird's-eye speedwell, Veronica persica); experiment: as above
Source text: as §2, §3

[8] = tested on: foxtail, green (Setaria viridis); experiment: as above
Source text: as §2, §3

[9] = tested on: bromegrass, downy (downy bromegrass, Bromus tectorum); experiment: as above
Source text: as §2, §3

[10] = tested on: geranium, cutleaf (Geranium dissectum); experiment: as above
Source text: as §2, §3

[11] = tested on: radish, wild (Raphanus raphanistrum); experiment: as above
Source text: as §2, §3

[12] = tested on: Russian thistle (Salsola kali); experiment: as above
Source text: as §2, §3

[13] = tested on: ryegrass, Italian (Lolium multiflorum); experiment: as above
Source text: as §2, §3

[14] = tested on: mustard, wild (Sinapis arvensis); experiment: as above
Source text: as §2, §3

[15] = tested on: chickweed (common chickweed, Stellaria media); experiment: as above
Source text: as §2, §3

[16] = tested on: pigweed (Amaranthus retroflexus); experiment: as above
Source text: as §2, §3

Cc1ccc2ccc(C)c(-c3c(O)c(Cl)nn(C)c3=O)c2c1 [Cpd. No. 20, 6-chloro-4-(2,7-dimethyl-1-naphthalenyl)-5-hydroxy-2-methyl-3(2H)-pyridazinone]
Observed result (plant response rating), BRADC ([1]; applied alone at 31 g a.i./ha): 73
Observed result (plant response rating), BRADC ([1]; applied alone at 62 g a.i./ha): 84
Observed result (plant response rating), BRADC ([1]; applied alone at 125 g a.i./ha): 93
Observed result (plant response rating), ERICA ([2]; applied alone at 31 g a.i./ha): 85
Observed result (plant response rating), ERICA ([2]; applied alone at 62 g a.i./ha): 85
Observed result (plant response rating), ERICA ([2]; applied alone at 125 g a.i./ha): 88
Plant response rating, Buckwheat, Wild ([3]; 16 g ai/ha): 100
Plant response rating, Buckwheat, Wild ([3]; 31 g ai/ha): 98
Plant response rating, Buckwheat, Wild ([3]; 62 g ai/ha): 99
Plant response rating, Buckwheat, Wild ([3]; 125 g ai/ha): 100
Plant response rating, Canada Thistle ([4]; 16 g ai/ha): 75
Plant response rating, Canada Thistle ([4]; 31 g ai/ha): 85
Plant response rating, Canada Thistle ([4]; 62 g ai/ha): 95
Plant response rating, Canada Thistle ([4]; 125 g ai/ha): 95
Plant response rating, Windgrass ([5]; 16 g ai/ha): 15
Plant response rating, Windgrass ([5]; 31 g ai/ha): 25
Plant response rating, Windgrass ([5]; 62 g ai/ha): 50
Plant response rating, Windgrass ([5]; 125 g ai/ha): 75
Plant response rating, Deadnettle ([6]; 16 g ai/ha): 35
Plant response rating, Deadnettle ([6]; 31 g ai/ha): 80
Plant response rating, Deadnettle ([6]; 62 g ai/ha): 85
Plant response rating, Deadnettle ([6]; 125 g ai/ha): 95
Plant response rating, Speedwell ([7]; 16 g ai/ha): 50
Plant response rating, Speedwell ([7]; 31 g ai/ha): 60
Plant response rating, Speedwell ([7]; 62 g ai/ha): 80
Plant response rating, Speedwell ([7]; 125 g ai/ha): 85
Plant response rating, Foxtail, Green ([8]; 16 g ai/ha): 85
Plant response rating, Foxtail, Green ([8]; 31 g ai/ha): 90
Plant response rating, Foxtail, Green ([8]; 62 g ai/ha): 95
Plant response rating, Foxtail, Green ([8]; 125 g ai/ha): 98
Plant response rating, Bromegrass, Downy ([9]; 16 g ai/ha): 0
Plant response rating, Bromegrass, Downy ([9]; 31 g ai/ha): 5
Plant response rating, Bromegrass, Downy ([9]; 62 g ai/ha): 10
Plant response rating, Bromegrass, Downy ([9]; 125 g ai/ha): 25
Plant response rating, Geranium, Cutleaf ([10]; 16 g ai/ha): 65
Plant response rating, Geranium, Cutleaf ([10]; 31 g ai/ha): 75
Plant response rating, Geranium, Cutleaf ([10]; 62 g ai/ha): 80
Plant response rating, Geranium, Cutleaf ([10]; 125 g ai/ha): 85
Plant response rating, Radish, Wild ([11]; 16 g ai/ha): 0
Plant response rating, Radish, Wild ([11]; 31 g ai/ha): 0
Plant response rating, Radish, Wild ([11]; 62 g ai/ha): 15
Plant response rating, Radish, Wild ([11]; 125 g ai/ha): 25
Plant response rating, Russian Thistle ([12]; 16 g ai/ha): 80
Plant response rating, Russian Thistle ([12]; 31 g ai/ha): 75
Plant response rating, Russian Thistle ([12]; 62 g ai/ha): 80
Plant response rating, Russian Thistle ([12]; 125 g ai/ha): 85
Plant response rating, Ryegrass, Italian ([13]; 16 g ai/ha): 65
Plant response rating, Ryegrass, Italian ([13]; 31 g ai/ha): 75
Plant response rating, Ryegrass, Italian ([13]; 62 g ai/ha): 80
Plant response rating, Ryegrass, Italian ([13]; 125 g ai/ha): 90
Plant response rating, Mustard, Wild ([14]; 16 g ai/ha): 20
Plant response rating, Mustard, Wild ([14]; 31 g ai/ha): 25
Plant response rating, Mustard, Wild ([14]; 62 g ai/ha): 30
Plant response rating, Mustard, Wild ([14]; 125 g ai/ha): 60
Plant response rating, Chickweed ([15]; 16 g ai/ha): 99
Plant response rating, Chickweed ([15]; 31 g ai/ha): 99
Plant response rating, Chickweed ([15]; 62 g ai/ha): 100
Plant response rating, Chickweed ([15]; 125 g ai/ha): 100
Plant response rating, Pigweed ([16]; 16 g ai/ha): 98
Plant response rating, Pigweed ([16]; 31 g ai/ha): 98
Plant response rating, Pigweed ([16]; 62 g ai/ha): 100
Plant response rating, Pigweed ([16]; 125 g ai/ha): 100
